Among the data in patent publication US9815864B2, “Substituted nucleosides, nucleotides and analogs thereof” (Alios BioPharma, Inc., priority 2013, dated 2017) are EC50 values, retold here.

Where two headings read alike, the source gives them in different places.

For experiment [1], the system named is NV genome in HG23 cells. The experiment can be described thus: Norovirus replicon assay (HG23 cells, NV genome by qRT-PCR). The format is cell-based, genogroup 1 norovirus. Background: A replicon is a self-replicating genome or part of one, used to study replication in cells.
In experiment [2] the test system is Murine norovirus (MNV-1). The experiment can be described thus: Norovirus MNV-1 antiviral assay (CPE reduction, CellTiter-Glo, RAW 264.7 cells). The format is cell-based. Background: In ATP-based viability assays light output follows the ATP content of the culture.
[3] abbreviates: Norovirus, HG23 cells, reduction of NV genome vs mock-medium at 48 h, read-out: EC50.
Where [4] appears, read: RAW264.7, 72 h, RAW 264.7 cells infected with MNV-1 (MOI of 0.001), 3 days, read-out: EC50.

On to `C#C[C@]1(O)[C@H](n2ccc(=O)[nH]c2=O)O[C@](F)(COP(=O)(OCOC(=O)OC(C)C)OCOC(=O)OC(C)C)[C@H]1O` [Compound 208a], for which the EC50 in experiment [1] (setting [3]) was less than 1 µM; in experiment [2] (setting [4]), 10 to 100 µM.
As for `Nc1ccn([C@@H]2O[C@@](CO)(CCl)[C@@H](O)[C@H]2O)c(=O)n1` [Compound 271a], the EC50 in experiment [1] (setting [3]) and in experiment [2] (setting [4]) was 10 to 100 µM in each case.
On to `CCOc1nc(N)nc2c1ncn2[C@@H]1O[C@](F)(COP(=O)(OCOC(=O)OC(C)C)OCOC(=O)OC(C)C)[C@@H](O)[C@@]1(C)F` [Compound 188a], for which the EC50 is less than 1 µM in experiment [1] (setting [3]) and 1 to 10 µM in experiment [2] (setting [4]).
`C#C[C@@]1(O)[C@H](O)[C@@H](CO)O[C@H]1n1ccc2c(N)ncnc21` [Compound 291a]: the EC50 in experiment [1] (setting [3]) and in experiment [2] (setting [4]) was less than 1 µM each time.
As to `Nc1ccn([C@@H]2O[C@@](CO)(CF)[C@@H](O)C2(F)F)c(=O)n1` [Compound 179a], the values for the EC50 in experiment [1] (setting [3]) and in experiment [2] (setting [4]) were 1 to 10 µM and less than 1 µM, respectively.
Consider `CCOc1nc(N)nc2c1ncn2[C@@H]1O[C@](F)(CO[P@](=O)(N[C@@H](C)C(=O)OC2CCCCC2)Oc2ccccc2)[C@@H](O)[C@@]1(C)F` [Compound 140a], for which the EC50 in experiment [1] (Norovirus, HG23, 48 h) is less than 1 µM; in experiment [2] (MNV-1, RAW264.7, 72 h) it was 1 to 10 µM.
For `C#C[C@]1(O)[C@H](n2ccc(=O)[nH]c2=O)O[C@](F)(COP(=O)(N[C@@H](C)C(=O)OC2CCCCC2)Oc2ccccc2)[C@H]1O` (stereo partly shown) [Compound 131a], the EC50 in experiment [1] (Norovirus, HG23, 48 h) is less than 1 µM; in experiment [2] (MNV-1, RAW264.7, 72 h), 10 to 100 µM.
Regarding `C#C[C@@]1(O)[C@H](O)[C@@](CF)(COP(=O)(OCOC(=O)OC(C)C)OCOC(=O)OC(C)C)O[C@H]1n1cnc2c(N)ncnc21` [Compound 168a], the EC50 in experiment [1] (setting [3]) is less than 1 µM; in experiment [2] (setting [4]) it was 10 to 100 µM.
Regarding `CCOc1nc(N)nc2c1ncn2[C@@H]1O[C@]2(F)CO[P@](=O)(OC(C)C)O[C@H]2[C@@]1(C)F` [Compound 149a], the EC50 fell in the range of 1 to 10 µM in experiment [1] (HG23 cells, reduction of NV genome vs mock-medium at 48 h, read-out: EC50) and 10 to 100 µM in experiment [2] (RAW 264.7 cells infected with MNV-1 (MOI of 0.001), 3 days, read-out: EC50).
In the case of `CCOc1nc(N)nc2c1ncn2[C@@H]1O[C@](F)(COP(=O)(OCOC(=O)OC(C)C)OCOC(=O)OC(C)C)[C@@H](O)[C@@]1(C)O` [Compound 209a], the EC50 in experiment [1] (setting [3]) was less than 1 µM; in experiment [2] (setting [4]), 1 to 10 µM.
Consider `Nc1ccn([C@@H]2O[C@@](CO)(CF)[C@@H](O)[C@H]2F)c(=O)n1` [Compound 23a], for which the EC50 in experiment [1] (setting [3]) was 10 to 100 µM; in experiment [2] (setting [4]), 1 to 10 µM.

A word on the EC50: it is the concentration at which the effect is half-maximal.
